This note sets out measurements from patent publication US20190030046A1, “USE OF PURE COMPOUNDS EXTRACTED FROM ANTRODIA CAMPHORATA” (priority 2016, published 2019).

Assay [1] is described as follows: HFD-induced diabetic mice: fasting blood glucose and biochemical indexes. To be noted: 4 weeks; for Blood glucose: 12 h fasted HFD mice; for Insulin / Leptin: blood.
Protocol: The control group and HFD group contained 10% and 45% fat intake, respectively. The HFD mice were subdivided into 6 groups (9 per group) followed by 8-week induction. […] During the experiment, all mice were fasted overnight, and blood samples were collected from the retro-orbital sinus. Following four-week treatment and feeding, the food was removed, and the mice were fasted for 12 h and then sacrificed. Tissue samples required were collected from the mice and weighted. Some of the tissue samples were immediately stored at −80° C. and frozen for subsequent target gene analysis. Plasma samples were collected via centrifugation of whole blood at 1600×g for 15 min at 4° C., followed by plasma separation within 30 min. Some plasma samples obtained were used for TG and TC analysis. The metabolic parameters, including body weight, weight gain, and food intake, were performed as follows. Body weight was daily measured throughout the study. Body weight gain is considered as the difference between one day and the next day. The total weight of food intake was daily measured, followed by weighing the amount of remaining feed after 24 h. The difference indicates the daily food intake.
One part of the forgoing blood samples collected from the retro-orbital sinus of 12 h fasted mice was immediately used for analysis of glucose levels. The other part was used for analysis of blood TG, TC, free fatty acids, blood insulin, leptin, and adiponectin levels. Blood glucose levels were determined by a glucose analyzer (Model 1500 sidekick glucose analyzer, YSI). Plasma triglycerides (TG), total cholesterol (TC), and free fatty acids (FFA) were determined using commercial kits in accordance with manufacturer's instructions (Triglycerides-E test, Cholesterol-E test, and FFA-C test; Wako Pure Chemical, Osaka, Japan). Insulin and leptin levels were measured by enzyme-linked immunosorbent assay (ELISA) (mouse insulin ELISA kit, Mercodia, Uppsala, Sweden; mouse leptin ELISA kit, Morinaga, Yokohama, Japan).
Another assay has as its system G6-Pase. In words: Semiquantitative RT-PCR in liver tissue: G6-Pase. The format is in vivo, C57BL/6J mice. To be noted: vs HF; HF+Metf, 0.3 g/kg/day oral, 4 weeks. The procedure: (§1) The difference indicates the daily food intake.
(§2) Total RNA from liver tissue was isolated with a Trizol Reagent (Molecular Research Center, Inc., Cincinnati, Ohio, USA) according to the manufacturer's instructions. The integrity of the extracted total RNA was examined by 2% agarose gel electrophoresis, and the RNA concentration was determined by […] ultraviolet (UV) light absorbency at 260 nm and 280 nm (Spectrophotometer U-2800A, Hitachi). The total RNA (1 μg) was reverse transcribed to cDNA, and 5 μL Moloney murine leukemia virus reverse transcriptase (TEpicentre, Madison, Wis., USA). The PCR was performed in a final 25 μL containing 1 U Blend Taq-Plus (TOYOBO, Japan), 10 μL of the RT cDNA product, 10 μM of each forward (F) and reverse (R) primer, 75 mM Tris-HCL (pH 8.3) containing 1 mg/L Tween 20 (pH 8.3, also known as polyoxyethylene sorbitan monolaurate), 2.5 mM dNTP (deoxy-ribonucleoside triphosphate), and 2 mM MgCl2 (magnesium chloride). The PCR products were analyzed by 2% agarose gel and stained with ethidium bromide.

The nature of assay [2]: HFD-induced diabetic mice: histopathology (H-E) of epididymal white adipose and liver tissue. The format is in vivo, C57BL/6J mice. To be noted: epididymal white adipose, 4 weeks. The procedure:
as §1
Examination was performed for parts of EWAT (epididymal white adipose) and liver tissue specimens collected. The specimens above were soaked in formalin and neutral buffered solution and embedded in paraffin. Parts therein (8 μm) were cut and stained with hematoxylin and eosin. Images were photographed by a microscope (Olympus BX51, Olympus, Tokyo, Japan). Please refer to FIGS. 3(A) and 3(B).

The nature of assay [3]: HFD-induced diabetic mice: liver lipids. In kind it is in vivo, C57BL/6J mice. Particulars: 4 weeks.
In another assay the test system is PPARγ. In words: Western blot of PPARγ protein in liver and adipose tissue of HFD mice. Particulars: compared to HF; HF+Metf, 0.3 g/kg/day oral, 4 weeks.
Assay [4] has as its system membrane GLUT4. In words: Western blot of skeletal muscle membrane GLUT4 in HFD mice. Particulars: compared to HF; HF+Metf, 0.3 g/kg/day oral, 4 weeks.
Protocol: (§6) The HFD mice were subdivided into 6 groups (9 per group) followed by 8-week induction. […] Following four-week treatment and feeding, the food was removed, and the mice were fasted for 12 h and then sacrificed. Tissue samples required were collected from the mice and weighted. Some of the tissue samples were immediately stored at −80° C. and frozen for subsequent target gene analysis. Plasma samples were collected via centrifugation of whole blood at 1600×g for 15 min at 4° C., followed by plasma separation within 30 min.
(§7) We determined PPARα and FAS protein expression levels in liver tissue, PPARγ and FAS protein expression levels in adipose tissue, and membrane GLUT4 expression in skeletal muscle adipose. The total membrane fraction was collected with the buffer and determined as previously described. The membrane GLUT4, p-AMPK, and total AMPK protein content were determined by Western Blotting as previously described.
Assay [5] in a line: HFD-induced diabetic mice: absolute tissue weight, body weight, food intake. The format is in vivo, C57BL/6J mice. To be noted: 4 weeks.
Source text: as §1

A further assay concerns 11β-HSD1. In words: Semiquantitative RT-PCR in liver tissue: 11β-HSD1. The format is in vivo, C57BL/6J mice. To be noted: vs HF; HF+Metf, 0.3 g/kg/day oral, 4 weeks. The procedure: as §1, §2
The next assay has as its system GPAT. In words: Semiquantitative RT-PCR in liver tissue: GPAT. In kind it is in vivo, C57BL/6J mice. To be noted: vs HF; HF+Metf, 0.3 g/kg/day oral, 4 weeks. The procedure: as §1, §2
Another assay relates to CPT-1a. In words: Semiquantitative RT-PCR in liver tissue: CPT-1a. Particulars: vs HF; HF+Metf, 0.3 g/kg/day oral, 4 weeks. In kind it is in vivo, C57BL/6J mice. The procedure:
as §1, §2

The subject of another assay is PPARα. Nature of the assay: Western blot of PPARα protein in liver of HFD mice. To be noted: compared to HF; HF+Metf, 0.3 g/kg/day oral, 4 weeks.
Another assay deals with SREBP-1c. In words: Semiquantitative RT-PCR in liver tissue: SREBP-1c. The format is in vivo, C57BL/6J mice. Particulars: vs HF; HF+Metf, 0.3 g/kg/day oral, 4 weeks. The procedure: as §1, §2
The test system of a further assay is phospho-AMPK(Thr172). In words: Western blot of phospho-AMPK(Thr172)/total-AMPK in skeletal muscle and liver of HFD mice. To be noted: compared to HF; HF+Metf, 0.3 g/kg/day oral, 4 weeks. Background: Immunoblotting shows a protein as a band on a membrane.
For the next assay, the system named is SREBP-2. In words: Semiquantitative RT-PCR in liver tissue: SREBP-2. The format is in vivo, C57BL/6J mice. Particulars: vs HF; HF+Metf, 0.3 g/kg/day oral, 4 weeks. The procedure:
as §1, §2

In the next assay the test system is aP2. In words: Semiquantitative RT-PCR in liver tissue: aP2. To be noted: vs HF; HF+Metf, 0.3 g/kg/day oral, 4 weeks. The format is in vivo, C57BL/6J mice. The procedure: as §1, §2
In the next assay the test system is FAS. Nature of the assay: Western blot of FAS protein in liver and adipose tissue of HFD mice. Particulars: compared to HF; HF+Metf, 0.3 g/kg/day oral, 4 weeks.
The subject of assay [6] is phospho-Akt(Ser473)/total-Akt(Ser473). In words: phospho-Akt(Ser473)/total-Akt in C2C12 myotube cells (Western blot). Particulars: 25 min. The format is cell-based. The procedure: (§3) In the present invention, C2C12 skeletal myoblasts (ATCC, CRL-1772) were maintained in growth media consisting of Dulbecco's modified Eagle's medium (DMEM) (Gibco BRL) and supplemented with 10% Fetal Bovine Serum (FBS) (Hyclone) and 100 U/mL penicillin/100 μg/mL streptomycin (Gibco BRL), and split 1:4 using 0.05% trypsin when 80% confluent. Myoblasts were diluted and placed in a 9 cm-diameter dish. Cells were cultured to achieve 80%-90% confluency and then the growth media was changed as 2% FBS/DMEM every 24 h for 5-7 days.
(§4) In experiments for determining GLUT4 and p-Akt(Ser473)/t-Akt proteins in tubes, differentiated C2C12 cells were serum-starved in DMEM/BSA for 2 h at 37° C. prior to incubation with MeOH crude extract (at 20, 100, 200, and 500 μg/mL), test compounds (at 1, 5, 10, and 25 μg/mL), or vehicle for 25 min, or 100 nM insulin for 25 min.
(§5) The cultures obtained by cell culture above were centrifuged, and the resulting pellet was resuspended in a homogenization buffer. The forgoing steps were performed with a filtration membrane. Protein concentrations were measured using a BCA assay (Pierce). Equal amounts of protein were diluted four times in SDS sample buffer, and subjected to SDS PAGE and Western blotting with antibodies specific for Akt, p-Akt Ser^473, and GLUT4. Density blotting analysis was performed using Alpha Easy FC software.

Assay [7] concerns membrane GLUT4. In words: Membrane GLUT4 protein expression in C2C12 myotube cells (Western blot). The format is cell-based. Particulars: 25 min. The procedure:
as §3, §4, §5

Where [8] appears, read: HFD mice, HF+Metf, 300 mg/kg/day oral.
Where [9] appears, read: plasma, HFD mice, HF+Metf, 300 mg/kg/day oral.
[10] abbreviates: HFD mice, HF+Feno, 250 mg/kg/day oral.

Protocol for phospho-AMPK(Thr172): as §6, §7

Turning to `CN(C)C(=N)N=C(N)N` [Metf, metformin, reference compound], the Blood glucose in assay [1] (HF+Metf, 300 mg/kg/day oral) is recorded as 87.33 mg/dL. In assay [1] (setting [8]), the “Plasma FFA” value came to 0.85 meq/L, the Insulin worked out at 2.467 µg/L and the Leptin is reported as 7.359 ng/mL. In assay [1] (setting [9]), this compound gave a TC of 117.20 mg/dL and a TG of 82.07 mg/dL. For the same compound, the “G6-Pase mRNA expression level in liver” value in the assay with G6-Pase is given as “decreased”. In assay [2] (HF+Metf, 0.3 g/kg/day oral), this compound had an Adipocyte area of 6919.5 ± 195.1 μm^2. For the same compound, in assay [3] (HF+Metf, 300 mg/kg/day oral), the “Liver lipids: Total lipid” value turned out to be 61.1 mg/g and the Liver lipids: Triacylglycerol stood at 49 µmol/g. Besides, in the assay on PPARγ, the “PPARγ protein expression level in adipose tissue” value is “significantly decreased” and the “PPARγ protein expression level in liver” value is given as “significantly decreased”. Moreover, the “membrane expression level of GLUT4 in skeletal muscle” value with membrane GLUT4 [4] is “significantly increased”. For the same compound, the Absolute tissue weight: Visceral fat in [5] (EWAT plus RWAT, HF+Metf, 300 mg/kg/day oral) is 662 mg. Moreover, in [5] (HF+Metf, 300 mg/kg/day oral), the Absolute tissue weight: Brown adipose tissue (BAT) was determined as 134 mg, the Absolute tissue weight: Epididymal white adipose tissue (EWAT) is 482 mg, the Absolute tissue weight: Liver came to 1960 mg and the Absolute tissue weight: Mesenteric white adipose tissue (MWAT) amounted to 198 mg. In [5] (HF+Metf, 300 mg/kg/day oral), this compound returned an Absolute tissue weight: Retroperitoneal white adipose tissue (RWAT) of 180 mg, an Absolute tissue weight: Spleen of 81 mg, a Final body weight of 26.35 g and a Food intake of 2.25 g/day/mouse. The Weight gain in [5] (HF+Metf, 300 mg/kg/day oral) was 0.52 g. Further, in the assay with 11β-HSD1, the “11β-HSD1 mRNA expression level in liver” value was “decreased”. In addition, the “GPAT mRNA expression level in liver” value in the assay with GPAT is recorded as “decreased”. In addition, the “CPT-1a mRNA expression level in liver” value in the assay with CPT-1a is “increased”. Moreover, the “PPAR protein expression level in liver” value in the assay on PPARα is recorded as “significantly increased”. For the same compound, the “SREBP-1c mRNA expression level in liver” value with SREBP-1c was “decreased”. In addition, in the assay on phospho-AMPK(Thr172), the “expression level of p-AMPK/t-AMPK proteins in liver” value is listed as “significantly increased” and the “expression level of phospho-AMPK/total-AMPK in skeletal muscle” value was “significantly increased”. The “SREBP-2 mRNA expression level in liver” value with SREBP-2 was “decreased”. Besides, the “aP2 mRNA expression level in liver” value in the assay on aP2 was “decreased”. In the assay with FAS, the “FAS protein expression level in adipose tissue” value is “significantly decreased” and the “FAS protein expression level in liver” value is given as “significantly decreased”.

For insulin [reference compound], the “protein expression level of phospho-Akt(Ser473)/total-Akt(Ser473)” value in assay [6] (100 nM insulin) was “increase”. Also, in the assay on membrane GLUT4 [7] (100 nM insulin), the “protein expression level of membrane GLUT4” value is listed as “increase”.

`C=C(CC[C@@H](C)[C@H]1CC[C@H]2C3=C(C(=O)C[C@]12C)[C@@]1(C)CC[C@@H](O)[C@](C)(O)[C@@H]1C[C@@H]3O)C(C)C(=O)O` (stereo partly shown) [AnK, Antcin K]: the “protein expression level of phospho-Akt(Ser473)/total-Akt(Ser473)” value in assay [6] (AnK 10 and 25 μg/mL) is “increase”. For the same compound, the “protein expression level of membrane GLUT4” value with membrane GLUT4 [7] (5, 10, and 25 μg/mL) is “increase”.

`CC(C)OC(=O)C(C)(C)Oc1ccc(C(=O)c2ccc(Cl)cc2)cc1` [Feno, fenofibrate, reference compound]: the Blood glucose in assay [1] (HF+Feno, 250 mg/kg/day oral) is listed as 86.56 mg/dL. Moreover, in [1] (setting [10]), the “Plasma FFA” value came to 0.86 meq/L, the Insulin was determined as 2.402 µg/L and the Leptin came out at 7.507 ng/mL. In addition, the TG in assay [1] (plasma, HFD mice, HF+Feno, 250 mg/kg/day oral) was 83.35 mg/dL. In addition, the Adipocyte area in assay [2] (HF+Feno, 0.25 g/kg/day oral) is recorded as 6270.5 ± 165.4 μm^2. In addition, in assay [3] (HF+Feno, 250 mg/kg/day oral), the “Liver lipids: Total lipid” value is on record as 62.0 mg/g and the Liver lipids: Triacylglycerol turned out to be 48.6 µmol/g. In [5] (HF+Feno, 250 mg/kg/day oral), this compound displayed a Final body weight of 26.04 g, a Food intake of 2.05 g/day/mouse and a Weight gain of 0.46 g.
